# Assay results as given in US20100173835A1, “Peptides for Treatment of Obesity” (Novo Nordisk A/S, priority 2008, published 2010).
# Read-outs that look alike come from different tables or passages of the source. *1 amine or outer side, *2 acyl side, *3 side chain or, on linkers, in order; H or OH if unused. Where a SMILES comes first, the peptide text is derived from it. Bridges are numbered along the chain shown (N, C = ends). [ ]: non-standard residue; d: D form. The star is where a group is joined. Palmitoyl(16-(5-tetrazolyl)) = O=C(CCCCCCCCCCCCCCCc1nnn[nH]1)*; X2 = O=C(CCCCCCCCCCCCCCCc1nnn[nH]1)NS(=O)(=O)CCCC(=O)*; Lys(CH2CO2H)2 = N[C@@H](CCCCN(CC(=O)O)CC(=O)O)C(=O)O; X1 = O=C(O)CN(CC(=O)O)C[C@H](N[*:1])C(=O)[*:2]; C16 diacid = O=C(O)CCCCCCCCCCCCCCC(=O)*; Hyp = O=C(O)[C@@H]1C[C@@H](O)CN1; NTA = O=C(O)CN(CC(=O)O)CC(=O)*; Nle = CCCC[C@H](N)C(=O)O; Dab = NCC[C@H](N)C(=O)O; Dap = NC[C@H](N)C(=O)O; AEEA = NCCOCCOCC(=O)O; βAla = NCCC(=O)O
# Legend:
# [1] = biological target: T1, human MC4 receptor (Homo sapiens, UniProt P32245); experiment: Assay (V) Melanocortin Receptor 4 (MC4) binding assay; settings: 125NDP-α-MSH binding, BHK cell membranes
# T1 construct: expressed in transfected cells
# Experimental: Assay (V)—Melanocortin Receptor 4 (MC4) Binding Assay
# In vitro ^125NDP-α-MSH binding to recombinant BHK cells expressing human MC4 receptor (filtration assay).
# The assay is performed in 5 ml minisorb vials (Sarstedt No. 55.526) or in 96-well filterplates (Millipore MADVN 6550), and using BHK cells expressing the human MC4 receptor using BHK cells stably expressing the human MC4 receptor. The membranes were prepared from frozen or fresh cells that were homogenized in 20 mM HEPES pH 7.1, 5 mM MgCl2 and 1 mg/ml bacitracin and centrifuged at 15000 rpm at 4° C., 10 min in a Sorvall RC 5B plus, SS-34 rotor. The supernatant was discarded, and the pellets were re-suspended in buffer, homogenized and centrifuged two more times. The final pellets were resuspended in the buffer mentioned above, and the protein concentration was measured and adjusted with buffer to 14 to 17 mg/ml and the membrane preparation were kept at −80° C. until assay. The assay was run directly on a dilution of this cell membrane suspension, without any further preparation. The BHK cell membranes are kept at −80° C. until assay, and the assay is run directly on a dilution of this cell membrane suspension, without further preparation. The suspension is diluted to give maximally 10% specific binding, i.e. to approx. 50-100 fold dilution. The assay is performed in a total volume of 200 μl: 50 μl of cell suspension, 50 μl of ^125NDP-α-MSH (≈79 pM in final concentration), 50 μl of test compound and 50 μl binding buffer (pH 7) mixed and incubated for 2 h at 25° C. [binding buffer: 25 mM HEPES, pH 7.0, 1 mM CaCl2, 1 mM MgSO4, 1 mM EGTA, 0.02% Bacitracin, 0.005% Tween™ 20 and 0.1% HSA or, alternatively, 0.1% ovalbumin (Sigma; catalogue No. A-5503)]. Test compounds are dissolved in DMSO and diluted in binding buffer. Radiolabelled ligand and membranes are diluted in binding buffer. The incubation is stopped by dilution with 2×100 μl ice-cold 0.9% NaCl. The radioactivity retained on the filters is counted using a Cobra II auto gamma counter.
# (§1) The data are analysed by non-linear regression analysis of binding curves, using the Windows™ program GraphPad™ Prism (GraphPad Software, USA).
# [2] = biological target: T2, MC1 receptor (Homo sapiens, UniProt Q01726); experiment: Assay (IV) Melanocortin Receptor 1 (MC1) binding assay
# T2 construct: expressed in transfected cells
# Experimental: Assay (IV)—Melanocortin Receptor 1 (MC1) Binding Assay
# The MC1 receptor binding assay is performed on BHK cell membranes stably expressing the MC1 receptor. The assay is performed in a total volume of 250 NI: 25 μl of ^125NDP-α-MSH (22 pM in final concentration), 25 μl of test compound/control and 200 μl of cell membrane (25 μg/ml). Test compounds are dissolved in DMSO. Radioactively labeled ligand, membranes and test compounds are diluted in buffer: 25 mM HEPES, pH 7.4, 0.1 mM CaCl2, 1 mM MgSO4, 1 mM EDTA, 0.1% HSA and 0.005% Tween™ 20. Alternatively, HSA may be substituted with ovalbumin. The samples are incubated at 30° C. for 90 min. in Costar round-bottom microtiter plates. Incubation is terminated by filtration on a Packard harvester filtermate. Rapid filtration through Packard Unifilter-96 GF/B filters pre-treated with polyethylenimine (PerkinElmer 6005277). The filters are washed with ice-cold 0.9% NaCl 8-10 times. The plates is air dried at app. 55° C. for 30 min, and 50 μl Microscint 0 (Packard, cat. No. 6013616) is added to each well. The plates are counted in a Topcounter (1 min/well).
# as §1
# [3] = Solubility data of compounds in water over the pH range; format: physicochemical; settings: read-out: Conc (solubility in water)
# [4] = 125NDP-α-MSH binding, BHK cell membranes, read-out: Assay (IV) MC1 Ki
# T1 sequence (P32245 whole entry): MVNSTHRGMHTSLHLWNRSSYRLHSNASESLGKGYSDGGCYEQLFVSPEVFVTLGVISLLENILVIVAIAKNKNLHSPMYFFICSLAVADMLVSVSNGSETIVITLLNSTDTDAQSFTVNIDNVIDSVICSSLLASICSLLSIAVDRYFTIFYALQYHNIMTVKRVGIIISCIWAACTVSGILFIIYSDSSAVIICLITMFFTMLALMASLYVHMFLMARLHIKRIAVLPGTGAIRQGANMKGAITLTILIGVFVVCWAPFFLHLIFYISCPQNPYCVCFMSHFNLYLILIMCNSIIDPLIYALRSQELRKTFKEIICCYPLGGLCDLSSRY
# T2 sequence (Q01726 whole entry): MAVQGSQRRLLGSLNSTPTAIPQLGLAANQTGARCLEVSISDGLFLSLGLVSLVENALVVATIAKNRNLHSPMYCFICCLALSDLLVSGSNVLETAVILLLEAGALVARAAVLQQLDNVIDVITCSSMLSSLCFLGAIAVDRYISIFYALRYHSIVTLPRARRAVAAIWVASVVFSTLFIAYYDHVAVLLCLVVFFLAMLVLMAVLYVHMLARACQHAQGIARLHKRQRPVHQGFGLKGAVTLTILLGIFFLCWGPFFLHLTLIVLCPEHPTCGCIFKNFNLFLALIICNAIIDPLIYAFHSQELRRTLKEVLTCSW
structure (smiles),measurement,setting,value
"CCCC[C@H](NC(=O)[C@H](CNC(=O)CN(CC(=O)O)CC(=O)O)NC(=O)[C@H](CO)NC(=O)[C@H](CCC(N)=O)NC(=O)[C@H](CO)NC(=O)CNC(=O)COCCOCCNC(=O)CCCCCCCCCCCCCCCc1nnn[nH]1)C(=O)N[C@H]1CCC(=O)NCCCC[C@@H](C(N)=O)NC(=O)[C@H](Cc2c[nH]c3ccccc23)NC(=O)[C@H](CCCNC(=N)N)NC(=O)[C@@H](Cc2ccccc2)NC(=O)[C@@H]2C[C@@H](O)CN2C1=O [Example 4, (2-{2-[16-(Tetrazol-5-yl)hexadecanoylamino]ethoxy}ethoxy)acetyl-Gly-Ser-Gln-Ser-Dap(BCMA)-Nle-c[Glu-Hyp-D-Phe-Arg-Trp-Lys]-NH2] ({Palmitoyl(16-(5-tetrazolyl))-AEEA}-GSQS[Dap](NTA)[Nle]E[Hyp][dF]RWK-NH2; lactam 7-12)",Ki,[1]; Assay (V) MC4 [Ki] (nM),5.67 nM
same,Ki,[2],4800 nM
"CCCC[C@H](NC(=O)[C@H](CN(CC(=O)O)CC(=O)O)NC(=O)[C@H](Cc1c[nH]cn1)NC(=O)[C@H](CCC(N)=O)NC(=O)[C@H](CO)NC(=O)CNC(=O)COCCOCCNC(=O)CCCCCCCCCCCCCCCc1nnn[nH]1)C(=O)N[C@H]1CCC(=O)NCCCC[C@@H](C(N)=O)NC(=O)[C@H](Cc2c[nH]c3ccccc23)NC(=O)[C@H](CCCNC(=N)N)NC(=O)[C@@H](Cc2ccccc2)NC(=O)[C@@H]2C[C@@H](O)CN2C1=O [Example 6, (2-{2-[16-(Tetrazol-5-yl)hexadecanoylamino]ethoxy}ethoxy)acetyl-Gly-Ser-Gln-His-Dap(biscarboxymethyl)-Nle-c[Glu-Hyp-D-Phe-Arg-Trp-Lys]-NH2] ({Palmitoyl(16-(5-tetrazolyl))-AEEA}-GSQH[X1][Nle]E[Hyp][dF]RWK-NH2; lactam 7-12)",Ki,[1]; Assay (V) MC4 [Ki] (nM),2.9 nM
same,Ki,[2],5860 nM
"CCCC[C@H](NC(=O)[C@H](CNC(=O)CN(CC(=O)O)CC(=O)O)NC(=O)[C@H](Cc1cnc[nH]1)NC(=O)[C@H](CCC(N)=O)NC(=O)[C@H](CO)NC(=O)CNC(=O)COCCOCCNC(=O)CCCCCCCCCCCCCCCc1nnn[nH]1)C(=O)N[C@H]1CCC(=O)NCCCC[C@@H](C(N)=O)NC(=O)[C@H](Cc2c[nH]c3ccccc23)NC(=O)[C@H](CCCN=C(N)N)NC(=O)[C@@H](Cc2ccccc2)NC(=O)[C@@H]2C[C@@H](O)CN2C1=O [Example 9, (2-{2-[16-(Tetrazol-5-yl)hexadecanoylamino]ethoxy}ethoxy)acetyl-Gly-Ser-Gln-His-Dap(BCMA)-Nle-c[Glu-Hyp-D-Phe-Arg-Trp-Lys]-NH2] ({Palmitoyl(16-(5-tetrazolyl))-AEEA}-GSQH[Dap](NTA)[Nle]E[Hyp][dF]RWK-NH2; lactam 7-12)",Ki,[1]; Assay (V) MC4 [Ki] (nM),0.58 nM
same,Ki,[2],2670 nM
"CCCC[C@H](NC(=O)[C@H](CCNC(=O)CN(CC(=O)O)CC(=O)O)NC(=O)[C@H](Cc1c[nH]cn1)NC(=O)[C@H](CCC(N)=O)NC(=O)[C@H](CO)NC(=O)CNC(=O)COCCOCCNC(=O)CCCCCCCCCCCCCCCc1nnn[nH]1)C(=O)N[C@H]1CCC(=O)NCCCC[C@@H](C(N)=O)NC(=O)[C@H](Cc2c[nH]c3ccccc23)NC(=O)[C@H](CCCNC(=N)N)NC(=O)[C@@H](Cc2ccccc2)NC(=O)[C@@H]2C[C@@H](O)CN2C1=O [Example 10, (2-{2-[16-(Tetrazol-5-yl)hexadecanoylamino]ethoxy}ethoxy)acetyl-Gly-Ser-Gln-His-Dab(BCMA)-Nle-c[Glu-Hyp-D-Phe-Arg-Trp-Lys]-NH2] ({Palmitoyl(16-(5-tetrazolyl))-AEEA}-GSQH[Dab](NTA)[Nle]E[Hyp][dF]RWK-NH2; lactam 7-12)",Ki,[1]; read-out: Assay (V) MC4 [Ki],1.05 nM
same,Ki,[2]; [4],> 10000 nM
"CCCC[C@H](NC(=O)[C@H](CNC(=O)CN(CC(=O)O)CC(=O)O)NC(=O)[C@H](Cc1c[nH]cn1)NC(=O)[C@H](CCC(N)=O)NC(=O)[C@H](CO)NC(=O)CNC(=O)COCCOCCNC(=O)CCCS(=O)(=O)NC(=O)CCCCCCCCCCCCCCCc1nnn[nH]1)C(=O)N[C@H]1CCC(=O)NCCCC[C@@H](C(N)=O)NC(=O)[C@H](Cc2c[nH]c3ccccc23)NC(=O)[C@H](CCCNC(=N)N)NC(=O)[C@@H](Cc2ccccc2)NC(=O)[C@@H]2C[C@@H](O)CN2C1=O [Example 11, [2-(2-{4-[16-(Tetrazol-5-yl)hexadecanoylsulfamoyl]butanoylamino}ethoxy)ethoxy]acetyl-Gly-Ser-Gln-His-Dap(BCMA)-Nle-c[Glu-Hyp-D-Phe-Arg-Trp-Lys]-NH2] ({X2-AEEA}-GSQH[Dap](NTA)[Nle]E[Hyp][dF]RWK-NH2; lactam 7-12)",Ki,[1]; Assay (V) MC4 [Ki] (nM),3.25 nM
same,Ki,[2],9700 nM
"CCCC[C@H](NC(=O)[C@H](CCCCN(CC(=O)O)CC(=O)O)NC(=O)CCNC(=O)[C@H](Cc1c[nH]cn1)NC(=O)[C@H](CCC(N)=O)NC(=O)[C@H](CO)NC(=O)[C@H](CO)NC(=O)[C@H](CCC(N)=O)NC(=O)[C@@H](CO)NC(=O)CNC(=O)COCCOCCNC(=O)COCCOCCNC(=O)CCCCCCCCCCCCCCCc1nnn[nH]1)C(=O)N[C@H]1CCC(=O)NCCCC[C@@H](C(N)=O)NC(=O)[C@H](Cc2c[nH]c3ccccc23)NC(=O)[C@H](CCCNC(=N)N)NC(=O)[C@@H](Cc2ccccc2)NC(=O)[C@@H]2C[C@@H](O)CN2C1=O [Example 12, (2-{2-[2-(2-{2-[16-(Tetrazol-5-yl)hexadecanoylamino]ethoxy}ethoxy)acetylamino]ethoxy}ethoxy)acetyl-Gly-D-Ser-Gln-Ser-Ser-Gln-His-β-Ala-Lys(biscarboxymethyl)-Nle-c[Glu-Hyp-D-Phe-Arg-Trp-Lys]-NH2] ({Palmitoyl(16-(5-tetrazolyl))-AEEA-AEEA}-G[dS]QSSQH[βAla][Lys(CH2CO2H)2][Nle]E[Hyp][dF]RWK-NH2; lactam 11-16)",Ki,[1]; Assay (V) MC4 [Ki] (nM),2.85 nM
same,solubility at 3 days,"[3]; pH 3.1, pH 3.10",409 µM
same,solubility at 3 days,"[3]; pH 4.11, pH 4.11",374 µM
same,solubility at 3 days,"[3]; pH 4.69, pH 4.69",395 µM
same,solubility at 3 days,"[3]; pH 4.82, pH 4.82",268 µM
same,solubility at 3 days,"[3]; pH 5.07, pH 5.07",136 µM
same,solubility at 3 days,"[3]; pH 5.56, pH 5.56",43 µM
same,solubility at 3 days,"[3]; pH 6.71, pH 6.71",58 µM
same,solubility at 3 days,[3]; pH 6.71,87 µM
same,solubility at 3 days,[3]; pH 6.99,119 µM
same,solubility at 3 days,"[3]; pH 7.15, pH 7.15",210 µM
same,solubility at 3 days,"[3]; pH 7.72, pH 7.72",256 µM
"CCCC[C@H](NC(=O)[C@H](CNC(=O)CN(CC(=O)O)CC(=O)O)NC(=O)[C@H](Cc1c[nH]cn1)NC(=O)[C@H](CCC(N)=O)NC(=O)[C@H](CO)NC(=O)CNC(=O)COCCOCCNC(=O)CCCCCCCCCCCCCCC(=O)O)C(=O)N[C@H]1CCC(=O)NCCCC[C@@H](C(N)=O)NC(=O)[C@H](Cc2c[nH]c3ccccc23)NC(=O)[C@H](CCCNC(=N)N)NC(=O)[C@@H](Cc2ccccc2)NC(=O)[C@@H]2C[C@@H](O)CN2C1=O [Example 13, {2-[2-(15-Carboxypentadecanoylamino)ethoxy]ethoxy}acetyl-Gly-Ser-Gln-His-Dap(BCMA)-Nle-c[Glu-Hyp-D-Phe-Arg-Trp-Lys]-NH2] ({C16 diacid-AEEA}-GSQH[Dap](NTA)[Nle]E[Hyp][dF]RWK-NH2; lactam 7-12)",Ki,[1]; read-out: Assay (V) MC4 [Ki],3.6 nM
same,Ki,[2]; [4],> 10000 nM
